Measurements published in publication PMC6471591, “Preparation of Sesquiterpene Lactone Derivatives: Cytotoxic Activity and Selectivity of Action” (Molecules, 2019).
Where two headings read alike, the source gives them in different places.

Key:
A549 cells [1] = assay: Antiproliferative SRB assay (NCI protocol), 48 h; assay type: cell-based; conditions: Homo sapiens; A549 (lung), SRB, 48 h drug exposure; read-out: 50% growth inhibition (GI50) ± SD, A549
Protocol: (§1) In vitro antiproliferative activity was evaluated using the protocol of the National Cancer Institute (NCI) after 48 h of drug exposure using the sulforhodamine B (SRB) assay. […] We cannot discard that increasing lipophilicity may well result in an increase in cytotoxicity in vitro.
(§2) The following human solid tumor cell lines were used in this study: HBL-100 (breast), HeLa (cervix), SW1573 (non-small cell lung), T-47D (breast), A549 (lung), and WiDr (colon). Cells were maintained in 25 cm^2 culture flasks in RPMI 1640 supplemented with 5% heat-inactivated fetal calf serum and 2 mM L-glutamine in a 37 °C, 5% CO2, 95% humidified air incubator. Exponentially growing cells were trypsinized and resuspended in antibiotic containing medium (100 units penicillin G and 0.1 mg of streptomycin per mL). Single-cell suspensions displaying >97% viability by trypan blue dye exclusion test were subsequently counted. After counting, dilutions were made to give the appropriate cell densities for inoculation onto 96-well microtiter plates. Cells were inoculated in a volume of 100 μL per well at densities of 20,000 (WiDr), 15,000 (T-47D and A549), and 10,000 (HeLa, SW1573, and HBL-100) cells per well, based on their doubling times.
(§3) Chemosensitivity tests were performed using the SRB assay of the NCI with slight modifications. Briefly, pure compounds were initially dissolved in DMSO at 400 times the desired final maximum test concentration. Control cells were exposed to an equivalent concentration of DMSO (0.25% v/v, negative control). Each agent was tested in triplicate at different dilutions in the range 1–100 μM. Drug treatment started on day 1 after plating. Drug incubation periods were 48 h, after which cells were precipitated with 25 μL of ice-cold 50% (w/v) trichloroacetic acid and fixed for 60 min at 4 °C. Then, the SRB assay was performed. Optical density (OD) of each well was measured at 492 nm, using BioTek’s PowerWave XS Absorbance Microplate Reader (Highland Park, Winooski, VT, USA). Values were corrected for background OD from wells containing only culture medium. The percentage growth (PG) was calculated with respect to untreated control cells (C) at each level of drug concentrations based on the difference in OD at the start time (T0) and at the end of drug exposure (T), according to NCI formulas. Therefore, if T is greater than or equal to T0, the calculation is 100 × [(T–T0)/(C–T0)]. If T is lower than T0, denoting cell death, the calculation is 100 × [(T–T0)/(T0)]. The effect is defined as the growth percentage, where 50% growth inhibition (GI50) represents the concentration at which PG is +50. Based on these calculations, a PG value of 0 corresponds to the number of cells present at the beginning of drug exposure, while negative PG values denote net cell death.

HBL100 cells [2] = assay: Antiproliferative SRB assay (NCI protocol), 48 h; assay type: cell-based; conditions: Homo sapiens, HBL-100; HBL100 (breast), SRB, 48 h drug exposure; read-out: 50% growth inhibition (GI50) ± SD, HBL100
Protocol: as §1, §2, §3

HeLa cells [3] = assay: Antiproliferative SRB assay (NCI protocol), 48 h; assay type: cell-based; conditions: Homo sapiens; HeLa (cervix), SRB, 48 h drug exposure; read-out: 50% growth inhibition (GI50) ± SD, HeLa
Protocol: as §1, §2, §3

SW1573 cells = assay: Antiproliferative SRB assay (NCI protocol), 48 h; assay type: cell-based, human; conditions: for GI50: Homo sapiens, SW1573 (non-small cell lung), SRB, 48 h drug exposure, read-out: 50% growth inhibition (GI50) ± SD, SW1573; for Selectivity Index, SW1573: splenocyte CC50 versus SW1573 GI50
Protocol: as §1, §2, §3

T47-D cells = assay: Antiproliferative SRB assay (NCI protocol), 48 h; assay type: cell-based, human; conditions: for GI50: Homo sapiens, T47D, T47-D (breast), SRB, 48 h drug exposure, read-out: 50% growth inhibition (GI50) ± SD, T47-D; for Selectivity Index, T47-D: splenocyte CC50 versus T47-D GI50
Protocol: as §1, §2, §3

WiDr cells = assay: Antiproliferative SRB assay (NCI protocol), 48 h; assay type: cell-based, human; conditions: for GI50: Homo sapiens, WiDr (colon), SRB, 48 h drug exposure, read-out: 50% growth inhibition (GI50) ± SD, WiDr; for Selectivity Index, WiDr: splenocyte CC50 versus WiDr GI50
Protocol: as §1, §2, §3

[4] = Cytotoxicity on primary cell culture (propidium iodide, flow cytometry); assay type: cell-based
Protocol: The cytotoxicity of the sesquiterpene lactones and its derivatives was evaluated using mouse splenocytes. […] Cumanin derivatives (4–11) have shown CC50 values and selectivity indexes higher than natural compound 1. […] The incorporation of two triazole groups in cumanin (1) reduced cytotoxicity on normal cells and improved selectivity against tumor cell lines.
In a 96-well plate, spleen cells from Balb/c mouse (1.5 × 10^5) were incubated with different drug dilutions (200, 100, 50, 10, and 5 μg/mL) in RPMI medium containing 10% fetal calf serum. After 48 h of incubation at 37 °C (5% CO2), cells were harvested, washed once with PBS, and stained with 2.5 μg/mL propidium iodide (PI) for 5 min at room temperature. Subsequently, cell death was assessed by flow cytometry using a BD FACSaria II cytometer. Cells incubated only with a drug vehicle were used as a 100% viability control and death percentage was calculated according to the following formula: Death(%)=[1−(%PI^−cells)drug−treated/(%PI^−cells)100% viability control]×100.
Then the concentration capable of causing cell death in 50% of splenocytes (CC50) was determined using a non-linear regression approach.

[5] = test system: human solid tumor cell lines (A549, HBL-100, HeLa, SW1573, T-47D, WiDr); assay: Antiproliferative SRB assay, whole panel of tumor cell lines; assay type: cell-based; conditions: for GI50: Homo sapiens, all tested tumor cell lines, SRB, 48 h, read-out: GI50 values, range over all tested cell lines; for antiproliferative activity in words: tumor cell line panel, compared to cumanin (1)
Protocol: as §1, §2, §3

A549 cells [6] = assay: Antiproliferative SRB assay (NCI protocol), 48 h; assay type: cell-based, human; conditions: splenocyte CC50 versus A549 GI50
HBL100 cells [7] = assay: Antiproliferative SRB assay (NCI protocol), 48 h; assay type: cell-based, human; conditions: splenocyte CC50 versus HBL100 GI50
HeLa cells [8] = assay: Antiproliferative SRB assay (NCI protocol), 48 h; assay type: cell-based, human; conditions: splenocyte CC50 versus HeLa GI50

C=C1C(=O)O[C@@H]2C[C@@H](C)[C@@H]3C=CC(=O)[C@@]3(C)[C@@H](O[Si](C)(C)C(C)C)[C@H]12 [Compound 14]
GI50 (A549 cells [1]): 280 nM
GI50 (HBL100 cells [2]): 200 nM
GI50 (HeLa cells [3]): 150 nM
GI50 (SW1573 cells): 190 nM
Selectivity Index, SW1573 (SW1573 cells): 7.4
GI50 (T47-D cells): 360 nM
Selectivity Index, T47-D (T47-D cells): 3.9
GI50 (WiDr cells): 260 nM
Selectivity Index, WiDr (WiDr cells): 5.4
CC50 at 48 h ([4]; Balb/c, mouse): 1400 nM
GI50 [5]: 150 to 590 nM
Selectivity Index, A549 (A549 cells [6]): 5.0
Selectivity Index, HBL100 (HBL100 cells [7]): 7.0
Selectivity Index, HeLa (HeLa cells [8]): 9.3

C=C1C(=O)OC2CC(C)C3CC(OCc4cn(Cc5ccccc5)nn4)C(O)C3(C)CC12 (stereo not shown) [Compound 10]
GI50 (A549 cells [1]): 18000 nM
GI50 (HBL100 cells [2]): 29000 nM
GI50 (HeLa cells [3]): 32000 nM
GI50 (SW1573 cells): 32000 nM
Selectivity Index, SW1573 (SW1573 cells): 3.5
GI50 (T47-D cells): 37000 nM
Selectivity Index, T47-D (T47-D cells): 3.1
GI50 (WiDr cells): 30000 nM
Selectivity Index, WiDr (WiDr cells): 3.8
CC50 at 48 h ([4]; primary mouse splenocytes (spleen cells), Balb/c mouse spleen cells, 48 h incubation, PI staining, read-out: CC50 ± SD, splenocytes (concentration that causes 50% cell death)): 114000 nM
antiproliferative activity in words [5]: moderate activity
Selectivity Index, A549 (A549 cells [6]): 6.3
Selectivity Index, HBL100 (HBL100 cells [7]): 3.9
Selectivity Index, HeLa (HeLa cells [8]): 3.5

C#CCOC1CC2C(C)CC3OC(=O)C(=C)C3CC2(C)C1O (stereo not shown) [Compound 8]
GI50 (A549 cells [1]): 18000 nM
GI50 (HBL100 cells [2]): 17000 nM
GI50 (HeLa cells [3]): 19000 nM
GI50 (SW1573 cells): 28000 nM
Selectivity Index, SW1573 (SW1573 cells): 6.4
GI50 (T47-D cells): 24000 nM
Selectivity Index, T47-D (T47-D cells): 7.5
GI50 (WiDr cells): 7200 nM
Selectivity Index, WiDr (WiDr cells): 25.1
antiproliferative activity in words [5]: moderate activity
Selectivity Index, A549 (A549 cells [6]): 10.0
Selectivity Index, HBL100 (HBL100 cells [7]): 10.6
Selectivity Index, HeLa (HeLa cells [8]): 9.5

C=C1C(=O)O[C@@H]2C[C@@H](C)[C@@H]3C=CC(=O)[C@@]3(C)[C@@H](O[Si](C)(C)C)[C@H]12 [Compound 13]
GI50 (A549 cells [1]): 590 nM
GI50 (HBL100 cells [2]): 360 nM
GI50 (HeLa cells [3]): 190 nM
GI50 (SW1573 cells): 280 nM
Selectivity Index, SW1573 (SW1573 cells): 3.9
GI50 (T47-D cells): 290 nM
Selectivity Index, T47-D (T47-D cells): 3.8
GI50 (WiDr cells): 560 nM
Selectivity Index, WiDr (WiDr cells): 2.0
CC50 at 48 h ([4]; Balb/c, mouse): 1100 nM
GI50 [5]: 150 to 590 nM
Selectivity Index, A549 (A549 cells [6]): 1.9
Selectivity Index, HBL100 (HBL100 cells [7]): 3.0
Selectivity Index, HeLa (HeLa cells [8]): 5.8
